Measured values: US20130237590A1, “ASSESSING THYROID NEOPLASMS” (MAYO FOUNDATION FOR MEDICAL EDUCATION AND RESEARCH, priority 2010, published 2013)

Legend:
[1] = tested on: miR-122; experiment: miR-122 quantitation by quantitative RT-PCR in WRO cells; format: cell-based; conditions: WRO-vector cells treated with 10 μM GW9662 for 24 hours
Experimental: (§1) To generate stable lines, cells were seeded at 1×10^6 cells per 100 mm petri dish and transfected 24 hours later in multiples of six, with 10 μg each of vector or PPFP using LT-1 (Minus Bio, Madison, Wis.). For the generation of DN-PPARγ and miR stable cells, the DN-PPARγ construct (Reddi et al., Expression of the PAX8/PPARγ Fusion Protein Is Associated with Decreased Neovascularization In Vivo: Impact on Tumorigenesis and Disease Prognosis, Genes and Cancer, (2010)), mmu-Null, and mmu-miR122-EGFP constructs (Cellbio labs) were used. After 72 hours, WRO-Vector, WRO-PPFP, WRO-DN-PPARγ, FTC-Vector, and FTC−PPFP cells were obtained by selection in media containing 400 μg/mL of G418 (Invitrogen) with media changes every 72 hours. WRO-miR-Null and WRO-miR-122 cells were generated using 2.5 μg/mL puromycin selection. Pools of cells were harvested and analyzed for mRNA and microRNA expression by quantitative RT-PCR and for polypeptide expression by Western blotting.
(§2) RNA from each group of cells was isolated using TriZol Reagent (Invitrogen). […] PAX8/PPARγ fusion gene was detected by PCR using 5 μL of cDNA and a sense primer from exon 7 of PAX8 (5′-CGCGGATCCGCATT-GACTCACAGAGCA-3; SEQ ID NO:1; see, also, GenBank Accession No. NM_013953 and GI No.81295803) and antisense primer from exon 1 of PPARγ1 (5′-[…]-3; SEQ ID NO:2; GenBank Accession No. NM_138712 and GI No. 116284369). […]

[2] = tested on: PPARγ; experiment: PPRE luciferase reporter assay in WRO cells; format: cell-based
Experimental: (§3) Cells (0.3×10^6 cells/well) in six well plates were transfected using LT-1 reagent (Mirus, Madison Wis.) with 10 ng of Renilla (Promega, Madison, Wis.) and […] of PPRE-Aco-Luc reporter in triplicate. After 24 hours, cells were lysed and assayed using the dual luciferase kit (Promega). Data was calculated as a ratio of the luciferase to renilla expression and plotted as fold-change compared to vector. To test the effect of GW9662 on PPARγ activity, cells were treated 18 hours post transfection with either 2 μL DMSO or 10 μM GW9662 (a potent antagonist of PPARγ) for 24 hours prior to harvest and assay.

[3] = tested on: WRO cells; experiment: in vitro cell growth of stable WRO cells (absorbance at 490 nm); format: cell-based; conditions: stable WRO cells compared to WRO-vector cells; 72 hours
Experimental: as §1

[4] = tested on: WRO cells; experiment: in vivo xenograft tumor formation assay, WRO stable cells; design: species or system athymic nude mice; conditions: WRO-PPFP cells, by 5 weeks
Experimental: (§4) Stable cells (10^7) were resuspended in 100 μL of growth media and injected subcutaneously into both flanks of 5 week-old athymic nude mice (Fox1^nu/nu, Harlan, Indianapolis, Ind.). At least three mice were injected per group. Tumor size was determined weekly by measuring tumor length (L), width (W), and height (H) using vernier calipers (Vtumor=0.5236 LWH).

[5] = tested on: FTC-133 cells; experiment: in vivo xenograft tumor formation assay, FTC-133 stable cells; design: species or system athymic nude mice; conditions: FTC-133-PPFP cells (PTEN-null); by 4 weeks; vs vector only
Experimental: as §4

[6] = tested on: miR-122; experiment: miR-122 quantitation in WRO xenografts; format: in vivo, athymic nude mice
Experimental: RNA from each group of cells was isolated using TriZol Reagent (Invitrogen). RNA (1 μg) was reverse transcribed with oligo-dT primers using Message Sensor RT kit (Ambion, Austin, Tex.). PAX8/PPARγ fusion gene was detected by PCR using 5 μL of cDNA and a sense primer from exon 7 of PAX8 (5′-CGCGGATCCGCATT-GACTCACAGAGCA-3; SEQ ID NO:1; see, also, GenBank Accession No. NM_013953 and GI No.81295803) and antisense primer from exon 1 of PPARγ1 (5′-[…]-3; SEQ ID NO:2; GenBank Accession No. NM_138712 and GI No. 116284369). Glyceraldehyde 3-phosphate dehydrogenase (GAPDH) was amplified using kit primers. Xenografts were harvested at weeks 1 and 2 post induction and homogenized in T-PER (Pierce, Rockford, Ill.). RNA was extracted, and RT-PCR was performed for PPFP and GAPDH. Annealing temperature for PPFP and GAPDH was 55° C. for 30 seconds. miR-122 status was verified using TaqMan microRNA assays (Applied Biosystems) as per the manufacturer's instructions.
as §4

[7] = tested on: miR-122; experiment: miR-122 quantitation in FTC-133 cells; format: cell-based
Experimental: as §1, §2

[8] = tested on: PPARγ; experiment: PPRE luciferase reporter assay in FTC-133 cells; format: cell-based; conditions: FTC-133-PPFP cells
Experimental: as §3

[9] = tested on: ADAM-17; experiment: ADAM-17 transcript levels in WRO cells; format: cell-based; conditions: stable WRO cells
[10] = tested on: ADAM-17; experiment: ADAM-17 transcript levels in immortalized thyrocytes; format: cell-based; conditions: immortalized thyrocytes (N-Thy-ori cells) expressing PPFP
[11] = tested on: CD-31; experiment: microvessel density by CD-31 staining of WRO xenografts; format: in vivo, athymic nude mice; conditions: WRO xenografts compared to control xenografts
Experimental: Four tumors per group were formalin-fixed, paraffin-embedded, and individual sections stained with CD-31 (sc-1506-R, Santa Cruz, 1:200 dilution) specific antibody for 30-60 minutes and counterstained with hematoxylin. Antigen retrieval was done in EDTA at […] for 30 minutes after deparaffinization. Sections were blocked with peroxidase for 5 minutes and protein for 5 minutes. Antibody staining was visualized using Dako Envision plus System for 15 minutes followed by DAB chromogen for 10 minutes. Separate tumor sections were stained with hematoxylin and eosin to visualize tumor histology.
Stained slides were scanned using the Hamamatsu NanoZoomer (Bacus Laboratories, Inc., Chicago, Ill.). Digital images composed of multiple tiles (4096×64 pixel) were captured at 20× magnification. Image analysis was conducted as described elsewhere (Monahan et al., Endocrinology 150:4386-4394 (2009)). For each tumor section, the relative signal intensity from 10 randomly chosen fields (205×300 pixel) was quantified by histogram analysis (Adobe Photoshop). Data was expressed as signal intensity (signal pixel count divided by total image pixel count).

[12] = tested on: ARO cells; experiment: in vivo xenograft tumor formation assay, ARO colon cancer cells; design: species or system athymic nude mice; conditions: ARO-PPFP colon cancer cells; by 4 weeks
Experimental: (§5) To generate stable lines, cells were seeded at 1×10^6 cells per 100 mm petri dish and transfected 24 hours later in multiples of six, with 10 μg each of vector or PPFP using LT-1 (Minus Bio, Madison, Wis.). After 72 hours, ARO-Vector, ARO-PPFP, DRO-Vector, DRO-PPFP, FRO-Vector, FRO-PPFP, KTC-3-Vector, and KTC-3-PPFP cells were obtained by selection in media containing 400 μg/mL of G418 (Invitrogen) with media changes every 72 hours. Pools of cells were harvested and analyzed for PPFP expression by reverse transcriptase PCR.
as §4, with “(Fox1^nu/nu” for “(Fox1^nu/nu,”

[13] = tested on: DRO cells; experiment: in vivo xenograft tumor formation assay, DRO melanoma cells; design: species or system athymic nude mice; conditions: DRO-PPFP melanoma cells; by 6 weeks
Experimental: as §5
as §4, with “(Fox1^nu/nu” for “(Fox1^nu/nu,”

[14] = tested on: FRO cells; experiment: in vivo xenograft tumor formation assay, FRO anaplastic thyroid cancer cells; design: species or system athymic nude mice; conditions: FRO-PPFP anaplastic thyroid cancer cells; in 5 weeks
Experimental: as §5
as §4, with “(Fox1^nu/nu” for “(Fox1^nu/nu,”

[15] = tested on: KTC-3 cells; experiment: in vivo xenograft tumor formation assay, KTC-3 anaplastic thyroid cancer cells; design: species or system athymic nude mice; conditions: KTC-3-PPFP anaplastic thyroid cancer cells; in 6 weeks
Experimental: as §5
as §4, with “(Fox1^nu/nu” for “(Fox1^nu/nu,”

**Q.** What does the source list for O=C(Nc1ccccc1)c1cc([N+](=O)[O-])ccc1Cl [GW9662, reference compound]?
**A.** miR-122 expression [1]: not accompanied by increased miR-122 expression; PPRE activity ([2]; WRO-vector cells treated with 10 μM GW9662 for 24 hours): significant decrease in PPRE activity

**Q.** For “PPFP: PAX8/PPARγ fusion protein, constitutively expressed from a CMV promoter construct in stably transfected cancer cell lines”, which “decrease (inhibition) of in vitro cell growth” value [3] is on record?
**A.** 19%

**Q.** What about the “inhibition of xenograft tumor progression” value [4] of the same molecule?
**A.** 72%

**Q.** And the “inhibition of xenograft tumor progression” value ([4]; vs vector only)?
**A.** 9 fold

**Q.** And the “inhibition of xenograft tumor progression” value [5]?
**A.** < 2 fold

**Q.** And the “increase in miR-122 expression” value [6]?
**A.** 40.0 (p < 0.054) fold

**Q.** And the miR-122 expression ([7]; FTC-133(+PPFP) cells (PTEN-null))?
**A.** did not increase miR-122 expression

**Q.** What about the “inhibition of PPARγ activity (activation of PPRE)” value ([2]; stable WRO cells vs vector) of the same molecule?
**A.** 29%

**Q.** What about the “inhibition of activation of PPRE” value [8] of the same molecule?
**A.** 69%

**Q.** And the “reduction of ADAM-17 mRNA expression” value [9]?
**A.** 50%

**Q.** What about the “reduction of ADAM-17 mRNA expression” value [10] of the same molecule?
**A.** not

**Q.** What about the “decrease in microvessel density (CD-31 staining)” value [11] of the same molecule?
**A.** 2.1 fold

**Q.** And the “inhibition of xenograft tumor progression” value [12]?
**A.** 39.5%

**Q.** What about the “inhibition of xenograft tumor progression” value [13] of the same molecule?
**A.** 57.5%

**Q.** And the “inhibition of xenograft tumor progression” value [14]?
**A.** 80.1%

**Q.** What about the “inhibition of xenograft tumor progression” value [15] of the same molecule?
**A.** 77.2%

**Q.** Which “increase in miR-122 expression” value ([7]; transient expression of PTEN in FTC-133(+PPFP) cells vs vector only cells) does the source give for “PTEN: PTEN transiently expressed from an expression plasmid in FTC-133 cells [reference compound]” here?
**A.** 77 fold
